Values quoted from earlier work as cited in patent US20030096334A1, “Use of injectable dyes for staining an anterior lens capsule and vitreo-retinal interface” (priority 2001, published 2003).

Conditions: descriptive term only

solubility in water: very soluble
Structure (SMILES): Cc1cc(-c2ccc(/N=N/c3ccc4c(S(=O)(=O)O)cc(S(=O)(=O)O)c(N)c4c3O)c(C)c2)ccc1/N=N/c1ccc2c(S(=O)(=O)O)cc(S(=O)(=O)O)c(N)c2c1O [Evans Blue, Tetrasodium 6.6′-[3,3′-dimethylbiphenyl-4,4′-diylbis(azo)]bis[4-amino-t-hydroxynaphthalene-1,3-disulphonate]]
